# Laboratory results published in patent publication US11583529B2, “Treatment of inflammatory disorders” (Aldeyra Therapeutics, Inc., priority 2017, dated 2023).
# Entries after “also recorded” stand apart in the source; their conditions may differ.
# System: rat model of diabetic macular edema (DME)
# Test: Rat model of diabetic macular edema (STZ-induced diabetes), intravitreal treatment
# Format: in vivo, male brown Norway rats
# Protocol: To assess the effect of Compound I-22 in a rat model of diabetic macular edema (DME), Type 1 diabetes was induced in male brown Norway rats by intraperitoneal administration of streptozotocin (STZ; 55 mg/kg). Forty days after STZ administration, animals were assessed for the presence of diabetes by testing blood glucose levels.
# Compound I-22 was supplied as a preformulated sterile solution at 5 mg/mL. The vehicle was 25% hydroxypropyl-β-cyclodextrin solution (333 mOsm/kg) in a sodium phosphate buffer, pH 7.2. Animals with diabetes were assigned to groups of ten, to receive either vehicle (HPβCD) or compound I-22.
# The study consisted of three groups of male brown Norway rats. Diabetes and diabetic retinopathy were induced in Groups 2 and 3 by intraperitoneal injection of streptozotocin (STZ) on Day 0; Group 1 animals served as non-STZ (non-diabetic) untreated controls. Six and eight weeks after STZ injection, Vehicle (3.5 μL) and Compound I-22 (17.5 μg per eye; 3.5 μL) were administered intravitreally to both eyes of rats in Group 2 and Group 3, respectively. Clinical observations (daily), body weights (weekly), qualitative food consumption, and blood glucose levels (weekly) were assessed. To evaluate retinopathy, electroretinography (ERG) was conducted at Weeks 8, 9 and 10; and optical coherence tomography (OCT) and fundus fluorescein angiography (FFA) were performed pre-dose at Week 6, and at Weeks 8, 9, and 10. Animals were euthanized at 10 weeks post-STZ administration and eyes were collected for histopathological evaluation.
# Type 1 diabetes was induced by intraperitoneal administration of 55 mg/kg STZ after an overnight fast. The STZ dosing solution (27.5 mg/mL) was prepared immediately prior to injection by dissolving STZ (Sigma-Aldrich Corp, St. Louis, Mo., Catalog S0130) in a citrate solution (see below) followed by filtration of the STZ solution using a 0.2 μm syringe filter (Pall Life Sciences, Ann Arbor, Mich., Catalog PN4192). The STZ dosing solution was used for injection within approximately 30 minutes after reconstitution.
# Electroretinography (ERG) was performed on Days 55, 62 and 69. After an overnight dark adaption, both eyes were dilated with 1% tropicamide. Animals were anesthetized by isoflurane prior to the procedure. ERG responses to light stimuli (8.0 cd·s/m^2) were recorded by RETevet (LKC Technologies, Inc.). Implicit times and amplitudes of a-waves and b-waves were reported. There was a deviation from the protocol in which ERG was not performed prior to Test Article administration (˜Day 40). The deviation had no impact on the conclusion of the study. Baseline ERG measurements are not required to determine efficacy of the Test Article. A […] ERG assessment was added to the study.
# Optical coherence tomography (OCT) and fundus fluorescein angiography (FFA) were performed on Day 41 (pre-dose) and Days 56, 63 and 70 (post-dose initiation). Both eyes were dilated with 1% tropicamide. Animals were anesthetized (by ketamine/xylazine intramuscular injection) prior to the procedures.
# Retinas of both eyes in each animal were scanned by OCT (Envisu R-Class, Leica/Bioptogen). Thickness of retinal mid-layers, approximately including the outer plexiform layer (OPL), the outer nuclear layer (ONL) and the photoreceptor inner segment (IS), were measured using Bioptigen InVivoVue Reader software. For each eye, four (4) digital calipers were placed randomly on a cross-section image between OPL and IS, away from optic nerve; and measurements were exported to Microsoft Excel files. An average thickness of each retina was calculated from the four (4) measurements, using Microsoft Excel.
# For FFA, ˜1.5 mL/kg fluorescein (AK-FLUOR® fluorescein injection, USP, 10%, NDC 17478253-10) was injected intraperitoneally to visualize the retinal vasculature. […]
# [1] = 17.5 μg per eye IVT at 6 and 8 weeks after STZ, Week 10, vs vehicle
# [2] = 17.5 μg per eye IVT, vs vehicle
smiles,measurement,setting,value
CC(C)(O)c1cc2oc(-c3ccccc3)nc2cc1N [Compound I-22],tolerability in the retina,17.5 μg per eye IVT,well tolerated
same,neutrophil infiltration (histopathology score),[1],significant reduction; also recorded: blocked
same,retinal thickness (histopathology score),[1],reduced retinal thickness; also recorded: statically significant decrease; also recorded: significantly reduced
same,severities of the retinal lesions (histopathology),"17.5 μg per eye IVT at 6 and 8 weeks after STZ, ten weeks after STZ, vs vehicle",significantly diminished; also recorded: statistically significant reductions
same,retinal inflammation,"17.5 μg per eye IVT, model of DME",decreased
same,"ERG, OCT, or FFA",[2],did not show statistically significant effects
same,diabetes-induced retinal vascular changes,[2],inhibited; also recorded: blocked
same,"body weights, glucose levels, ERG, OCT or FFA",Group 3 vs Vehicle-treated Group 2,No statistically significant differences
same,Mean vascular scores,"Week 8, control group 3.0, p<0.05",2.47
same,OCT mean retinal thickness,"Week 9, vehicle-treated group 83.3 μm",82.3 μm
same,Retinal thickness (OCT),"Weeks 9 and 10, vs vehicle","reduced at Weeks 9 and 10, however it was not statistically significant"
same,decrease in retinal vascularity score,"microscopic sections of the retinas, vs vehicle, p<0.05",36%
same,ERG changes,relative to the non-diabetic control group,nor were there any ERG changes
same,decrease in vascular leakage,vs vehicle-treated group,did not reach statistical significance
